Columns and labels:
CDK4/Cyclin D1 = CDK4/Cyclin D1 (Homo sapiens (Human), UniProt P11802); test: CDK4/Cyclin D1 mobility shift assay; type: biochemical; conditions: activated CDK4/Cyclin D1, 3.5 mM ATP, Morrison fit; read-out: CDK4D1 Ki
CDK6/Cyclin D3 = CDK6/Cyclin D3 (Homo sapiens (Human), UniProt Q00534); test: CDK6/Cyclin D3 mobility shift assay; type: biochemical; conditions: activated CDK6/Cyclin D3, 3.5 mM ATP, Morrison fit; read-out: CDK6_D3 Ki
CDK6 = CDK6 (Homo sapiens (Human), UniProt Q00534); test: Phospho-Serine 795 Rb ELISA assay in MV4-11 cells; type: cell-based; conditions: overnight treatment, phospho-Rb S795, read-out: CDK6 pRB S795 ELISA MV4-11 cells IC50
CDK4 = CDK4 (Homo sapiens (Human), UniProt P11802); test: Phospho-Serine 795 Rb ELISA assay in JEKO-1 cells; type: cell-based; conditions: overnight treatment, phospho-Rb S795, read-out: CDK4 pRB S795 ELISA JEKO-1 cells IC50
CDK4, sequence (P11802 2-303): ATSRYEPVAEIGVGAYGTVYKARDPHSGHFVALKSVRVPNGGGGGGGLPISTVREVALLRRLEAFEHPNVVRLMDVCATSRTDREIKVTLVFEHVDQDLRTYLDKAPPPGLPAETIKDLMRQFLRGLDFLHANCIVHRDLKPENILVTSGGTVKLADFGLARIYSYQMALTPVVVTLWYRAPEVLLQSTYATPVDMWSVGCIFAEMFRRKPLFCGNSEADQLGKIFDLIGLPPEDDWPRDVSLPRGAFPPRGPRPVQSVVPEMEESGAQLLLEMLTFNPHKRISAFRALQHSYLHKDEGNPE
CDK4, sequence (P24385 whole entry partner): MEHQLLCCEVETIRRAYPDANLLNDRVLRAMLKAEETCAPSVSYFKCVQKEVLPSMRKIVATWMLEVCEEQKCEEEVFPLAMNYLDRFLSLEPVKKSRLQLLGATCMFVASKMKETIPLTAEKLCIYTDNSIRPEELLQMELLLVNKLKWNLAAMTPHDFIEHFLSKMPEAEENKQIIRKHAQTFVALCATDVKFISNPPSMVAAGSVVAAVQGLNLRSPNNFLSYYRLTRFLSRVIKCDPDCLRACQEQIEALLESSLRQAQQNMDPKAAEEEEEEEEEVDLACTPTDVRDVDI

CDK4/Cyclin D1, sequence (P11802 whole entry): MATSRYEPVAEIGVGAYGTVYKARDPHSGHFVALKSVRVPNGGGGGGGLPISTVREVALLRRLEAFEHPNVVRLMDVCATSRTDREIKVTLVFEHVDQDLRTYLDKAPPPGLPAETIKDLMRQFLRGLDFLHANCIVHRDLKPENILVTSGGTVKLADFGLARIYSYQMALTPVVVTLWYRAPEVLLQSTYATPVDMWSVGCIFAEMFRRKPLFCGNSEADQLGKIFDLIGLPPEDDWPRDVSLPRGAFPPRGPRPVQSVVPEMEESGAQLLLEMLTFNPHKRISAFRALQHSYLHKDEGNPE
CDK4/Cyclin D1, sequence (P24385 whole entry partner): as the sequence (P24385 whole entry partner) above
CDK6/Cyclin D3, sequence (Q00534 whole entry): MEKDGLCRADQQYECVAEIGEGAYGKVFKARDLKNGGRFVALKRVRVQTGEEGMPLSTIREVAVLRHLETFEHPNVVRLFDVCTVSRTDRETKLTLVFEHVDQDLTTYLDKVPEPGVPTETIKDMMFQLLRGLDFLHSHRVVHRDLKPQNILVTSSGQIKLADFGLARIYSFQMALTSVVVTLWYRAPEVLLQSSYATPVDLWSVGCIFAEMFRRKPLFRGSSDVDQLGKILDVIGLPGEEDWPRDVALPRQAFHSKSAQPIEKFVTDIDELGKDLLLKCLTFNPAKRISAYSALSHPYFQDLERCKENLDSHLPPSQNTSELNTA
CDK6/Cyclin D3, sequence (P30281 whole entry partner): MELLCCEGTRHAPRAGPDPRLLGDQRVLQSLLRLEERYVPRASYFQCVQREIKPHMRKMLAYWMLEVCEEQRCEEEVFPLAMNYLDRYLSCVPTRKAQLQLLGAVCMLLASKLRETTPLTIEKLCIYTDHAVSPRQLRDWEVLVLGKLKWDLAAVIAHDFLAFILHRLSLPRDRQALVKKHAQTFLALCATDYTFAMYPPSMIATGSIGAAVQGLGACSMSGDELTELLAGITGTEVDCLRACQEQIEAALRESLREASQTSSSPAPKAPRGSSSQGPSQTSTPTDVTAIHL
CDK6, sequence (Q00534 whole entry): as the sequence (Q00534 whole entry) above
CDK6, sequence (P30281 whole entry partner): as the sequence (P30281 whole entry partner) above

Row | Ki (CDK4/Cyclin D1) | Ki (CDK6/Cyclin D3) | IC50 (CDK6) | IC50 (CDK4) | SMILES
1 | 4.1 nM | 88.5 nM | 1220 nM | 395 nM | Cc1cnc(N[C@@H]2CCN(S(C)(=O)=O)C[C@H]2O)nc1-c1cc(F)c2nc(C)n(C(C)C)c2c1 [Example A83, (3R,4R)-4-({4-[4-fluoro-2-methyl-1-(propan-2-yl)-1H-benzimidazol-6-yl]-5-methylpyrimidin-2-yl}amino)-1-(methanesulfonyl)piperidin-3-ol]
2 | 0.2 nM | 2.8 nM | 97.7 nM | 40.1 nM | CC(C)n1c(CO)nc2c(F)cc(-c3nc(N[C@@H]4CCN(S(C)(=O)=O)C[C@H]4O)ncc3Cl)cc21 [Example A87, (3R,4R)-4-({5-chloro-4-[4-fluoro-2-(hydroxymethyl)-1-(propan-2-yl)-1H-benzimidazol-6-yl]pyrimidin-2-yl}amino)-1-(methanesulfonyl)piperidin-3-ol]
3 | 0.1 nM | 1.7 nM | 25.7 nM | 14.9 nM | CC(C)n1c(C(C)(C)O)nc2c(F)cc(-c3nc(N[C@@H]4CCN(S(C)(=O)=O)C[C@H]4O)ncc3Cl)cc21 [Example A91, (3R,4R)-4-({5-chloro-4-[4-fluoro-2-(2-hydroxypropan-2-yl)-1-(propan-2-yl)-1H-benzimidazol-6-yl]pyrimidin-2-yl}amino)-1-(methanesulfonyl)piperidin-3-ol]
4 | 0.1 nM | 1.5 nM | 129 nM | 65.6 nM | Cc1nc2c(F)cc(-c3nc(N[C@@H]4CCN(S(C)(=O)=O)C[C@H]4O)ncc3C#N)cc2n1C(C)C [Example B01, 4-[4-fluoro-2-methyl-1-(propan-2-yl)-1H-benzimidazol-6-yl]-2-{[(3R,4R)-3-hydroxy-1-(methanesulfonyl)piperidin-4-yl]amino}pyrimidine-5-carbonitrile]

Further lines, the compound ahead of its results:

Row | SMILES | Ki (CDK4/Cyclin D1) | Ki (CDK6/Cyclin D3) | IC50 (CDK6) | IC50 (CDK4)
5 | CC1(C)OCCn2nc3c(F)cc(-c4nc(N[C@@H]5CCOC[C@H]5O)ncc4F)cc3c21 [Example A80, 1,5-anhydro-2,3-dideoxy-3-{[5-fluoro-4-(7-fluoro-1,1-dimethyl-3,4-dihydro-1H-[1,4]oxazino[4,3-b]indazol-9-yl)pyrimidin-2-yl]amino}-D-threo-pentitol] | 0.5 nM | 14.7 nM | 217 nM | 72.9 nM
6 | Cc1nc2c(F)cc(-c3nc(N[C@@H]4CCN(S(C)(=O)=O)C[C@H]4O)ncc3F)cc2n1C1CNC1 [Example A88, (3R,4R)-4-({4-[1-(azetidin-3-yl)-4-fluoro-2-methyl-1H-benzimidazol-6-yl]-5-fluoropyrimidin-2-yl}amino)-1-(methanesulfonyl)piperidin-3-ol] | 4.5 nM | 80.4 nM | 10000 nM | 7320 nM
7 | Cc1nc2c(F)cc(-c3nc(N[C@@H]4CCN(S(C)(=O)=O)C[C@H]4O)ncc3Cl)cc2n1C1COC1 [Example A89, (3R,4R)-4-({5-chloro-4-[4-fluoro-2-methyl-1-(oxetan-3-yl)-1H-benzimidazol-6-yl]pyrimidin-2-yl}amino)-1-(methanesulfonyl)piperidin-3-ol] | 0.5 nM | 12 nM | 570 nM | 118 nM
8 | CC(C(F)F)n1c(CO)nc2c(F)cc(-c3nc(N[C@@H]4CCN(S(C)(=O)=O)C[C@H]4O)ncc3Cl)cc21 (stereo partly drawn) [Example A92, (3R,4R)-4-({5-chloro-4-[1-(1,1-difluoropropan-2-yl)-4-fluoro-2-(hydroxymethyl)-1H-benzimidazol-6-yl]pyrimidin-2-yl}amino)-1-(methanesulfonyl)piperidin-3-ol] | 0.1 nM | 0.9 nM | 42.9 nM | 23.8 nM
9 | CC(C)n1c(C(C)(C)O)nc2c(F)cc(-c3nc(N[C@@H]4CCOC[C@H]4O)ncc3Cl)cc21 [Example A94, 1,5-anhydro-3-({5-chloro-4-[4-fluoro-2-(2-hydroxypropan-2-yl)-1-(propan-2-yl)-1H-benzimidazol-6-yl]pyrimidin-2-yl}amino)-2,3-dideoxy-D-threo-pentitol] | 0.6 nM | 13.9 nM | 145 nM | 38.5 nM
